According to patent publication US10670605B2, “Cysteine reactive probes and uses thereof” (The Scripps Research Institute, priority 2015, dated 2020):

How the values were obtained:
Assay in all cases: Competitive isoTOP-ABPP in situ (fragment-treated cells)
Format in all cases: cell-based
[1] = molecular target: T1, cysteines in MDA-MB-231 and Ramos cells (Homo sapiens, UniProt P52597); conditions: 200 μM, insitu
T1 sequence (P52597 1-415): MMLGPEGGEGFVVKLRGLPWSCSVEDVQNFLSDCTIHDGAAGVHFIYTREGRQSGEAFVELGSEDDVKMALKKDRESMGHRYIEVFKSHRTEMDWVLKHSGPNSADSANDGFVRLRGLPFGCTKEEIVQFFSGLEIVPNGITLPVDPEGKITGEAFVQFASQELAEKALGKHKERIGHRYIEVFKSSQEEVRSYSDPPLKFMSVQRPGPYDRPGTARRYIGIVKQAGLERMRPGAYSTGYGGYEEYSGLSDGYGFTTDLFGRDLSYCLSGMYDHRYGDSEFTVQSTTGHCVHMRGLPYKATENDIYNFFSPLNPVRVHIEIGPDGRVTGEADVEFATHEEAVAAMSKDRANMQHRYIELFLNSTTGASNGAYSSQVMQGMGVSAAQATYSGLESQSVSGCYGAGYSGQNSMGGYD

[2] = molecular target: T2, cysteines in MDA-MB-231 and Ramos cells (Homo sapiens, UniProt Q86SX6); conditions: 200 μM, insitu
T2 sequence (Q86SX6 32-157): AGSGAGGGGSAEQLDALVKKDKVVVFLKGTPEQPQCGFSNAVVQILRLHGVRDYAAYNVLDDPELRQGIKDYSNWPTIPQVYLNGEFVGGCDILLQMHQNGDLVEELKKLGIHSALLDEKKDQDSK

[3] = molecular target: T3, cysteines in MDA-MB-231 and Ramos cells (Homo sapiens, UniProt P42224); conditions: 200 μM, insitu
T3 sequence (P42224 1-750): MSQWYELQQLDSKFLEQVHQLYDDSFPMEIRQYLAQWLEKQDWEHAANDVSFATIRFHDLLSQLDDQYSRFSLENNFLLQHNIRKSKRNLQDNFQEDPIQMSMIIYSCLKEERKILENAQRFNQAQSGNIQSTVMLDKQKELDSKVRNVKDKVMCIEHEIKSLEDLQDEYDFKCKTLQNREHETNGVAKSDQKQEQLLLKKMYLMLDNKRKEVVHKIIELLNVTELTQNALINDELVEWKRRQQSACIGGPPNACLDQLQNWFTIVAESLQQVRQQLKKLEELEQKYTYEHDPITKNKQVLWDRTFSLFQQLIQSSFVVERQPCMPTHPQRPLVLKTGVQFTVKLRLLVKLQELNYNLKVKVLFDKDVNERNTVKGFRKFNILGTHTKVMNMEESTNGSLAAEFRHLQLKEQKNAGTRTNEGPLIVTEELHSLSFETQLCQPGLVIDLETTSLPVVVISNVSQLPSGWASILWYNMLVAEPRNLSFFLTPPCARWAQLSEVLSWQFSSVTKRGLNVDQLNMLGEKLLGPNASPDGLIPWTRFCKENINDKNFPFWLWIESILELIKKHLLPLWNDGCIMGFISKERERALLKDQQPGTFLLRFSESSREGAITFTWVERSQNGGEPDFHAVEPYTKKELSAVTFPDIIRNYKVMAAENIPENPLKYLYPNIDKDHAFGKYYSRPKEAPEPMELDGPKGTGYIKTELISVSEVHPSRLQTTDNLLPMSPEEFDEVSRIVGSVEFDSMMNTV

[4] = molecular target: T4, cysteines in MDA-MB-231 and Ramos cells (Homo sapiens, UniProt P30101); conditions: 200 μM, insitu
T4 sequence (P30101 25-505): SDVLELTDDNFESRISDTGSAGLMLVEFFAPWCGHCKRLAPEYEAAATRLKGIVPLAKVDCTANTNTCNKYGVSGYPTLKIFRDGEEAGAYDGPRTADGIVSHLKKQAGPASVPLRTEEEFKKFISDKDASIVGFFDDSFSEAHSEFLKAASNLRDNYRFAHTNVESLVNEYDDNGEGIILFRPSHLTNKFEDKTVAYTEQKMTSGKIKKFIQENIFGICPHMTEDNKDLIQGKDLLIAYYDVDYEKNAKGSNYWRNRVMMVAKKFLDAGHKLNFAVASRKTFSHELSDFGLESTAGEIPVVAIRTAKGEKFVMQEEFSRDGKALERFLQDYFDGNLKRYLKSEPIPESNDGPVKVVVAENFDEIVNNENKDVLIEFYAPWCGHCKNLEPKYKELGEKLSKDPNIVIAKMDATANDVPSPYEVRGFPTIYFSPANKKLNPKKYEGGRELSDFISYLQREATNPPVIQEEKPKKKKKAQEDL

[5] = molecular target: T5, cysteines in MDA-MB-231 and Ramos cells (Homo sapiens, UniProt O95571); conditions: 200 μM, insitu
T5 sequence (O95571 8-254): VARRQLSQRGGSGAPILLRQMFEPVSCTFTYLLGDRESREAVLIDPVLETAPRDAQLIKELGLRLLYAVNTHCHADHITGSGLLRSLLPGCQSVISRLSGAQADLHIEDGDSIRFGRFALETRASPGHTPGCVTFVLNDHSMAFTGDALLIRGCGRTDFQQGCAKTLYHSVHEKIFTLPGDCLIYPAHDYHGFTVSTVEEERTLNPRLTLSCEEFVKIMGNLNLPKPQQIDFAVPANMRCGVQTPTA

[6] = molecular target: T6, cysteines in MDA-MB-231 and Ramos cells (Homo sapiens, UniProt P04183); conditions: 200 μM, insitu
T6 sequence (P04183 1-234): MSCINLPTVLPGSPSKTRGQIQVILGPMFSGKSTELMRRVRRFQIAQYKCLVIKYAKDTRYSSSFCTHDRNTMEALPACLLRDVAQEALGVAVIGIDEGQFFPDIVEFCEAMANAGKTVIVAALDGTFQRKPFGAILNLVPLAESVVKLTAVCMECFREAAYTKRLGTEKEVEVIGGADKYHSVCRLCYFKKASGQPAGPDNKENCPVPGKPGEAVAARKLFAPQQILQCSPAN

[7] = molecular target: T7, cysteines in MDA-MB-231 and Ramos cells (Homo sapiens, UniProt Q99757); conditions: 200 μM, insitu, 231
T7 sequence (Q99757 60-166): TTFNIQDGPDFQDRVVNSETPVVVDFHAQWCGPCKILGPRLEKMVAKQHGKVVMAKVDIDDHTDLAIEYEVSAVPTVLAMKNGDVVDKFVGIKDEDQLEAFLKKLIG

[8] = molecular target: T8, cysteines in MDA-MB-231 and Ramos cells (Homo sapiens, UniProt Q9HAV7); conditions: 200 μM, insitu, 231
T8 sequence (Q9HAV7 28-217): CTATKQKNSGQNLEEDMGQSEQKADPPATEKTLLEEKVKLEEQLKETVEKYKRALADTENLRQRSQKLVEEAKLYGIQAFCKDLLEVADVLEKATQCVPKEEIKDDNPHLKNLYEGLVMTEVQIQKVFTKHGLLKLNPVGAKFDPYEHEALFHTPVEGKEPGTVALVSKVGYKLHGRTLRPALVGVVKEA

SMILES | isoTOP-ABPP ratio P52597_C267 [1]; 231 | isoTOP-ABPP ratio P52597_C267 ([1]; ramos) | isoTOP-ABPP ratio Q86SX6_C67 [2]; 231 | isoTOP-ABPP ratio Q86SX6_C67 ([2]; ramos) | isoTOP-ABPP ratio P42224_C492 [3]; 231 | isoTOP-ABPP ratio P30101_C57 ([4]; ramos) | isoTOP-ABPP ratio P30101_C406 ([4]; ramos) | isoTOP-ABPP ratio O95571_C170 [5]; 231 | isoTOP-ABPP ratio O95571_C170 ([5]; ramos) | isoTOP-ABPP ratio P04183_C230 [6]; 231 | isoTOP-ABPP ratio, cysteine P04183_C66 [6]; 231 | isoTOP-ABPP ratio Q99757_C90 [7] | isoTOP-ABPP ratio Q9HAV7_C124 [8] | isoTOP-ABPP ratio P30101_C57 [4]; 231 | isoTOP-ABPP ratio P30101_C406 [4]; 231 | isoTOP-ABPP ratio P42224_C492 ([3]; ramos) | isoTOP-ABPP ratio P04183_C66 [6]; 231 | isoTOP-ABPP ratio P04183_C230 ([6]; ramos)
O=C(CCl)NCCc1c[nH]c2ccccc12 [compound 13] | 1.2 | 1.3 | 10.3 | 12.4 | 1.0 | 1.6 | 2.0 | 1.2 | 1.9 | 0.7 | 1.0 | – | – | – | – | – | – | –
CC(C)CCOCCNC(=O)CCl [compound 27] | 1.0 | – | 1.5 | – | – | – | – | 1.1 | – | – | – | 6.3 | 0.6 | 1.1 | 1.2 | – | – | –
C=CC(=O)N(Cc1cccnc1)c1cc(C(F)(F)F)cc(C(F)(F)F)c1 [compound 31] | 1.2 | 1.3 | – | 0.7 | 0.8 | – | 1.1 | – | – | – | – | 1.4 | – | 0.9 | 0.8 | 1.9 | 0.7 | 2.1
C=CC(=O)Nc1cc(F)c(N2CCN(C(=O)OC(C)(C)C)CC2)c(F)c1 [compound 38] | 1.8 | – | 1.0 | – | – | – | – | – | – | 2.8 | – | 3.6 | 1.0 | 0.9 | 0.8 | – | – | –

The remaining lines, values ahead:

isoTOP-ABPP ratio P52597_C267 [1]; 231 | isoTOP-ABPP ratio P52597_C267 ([1]; ramos) | isoTOP-ABPP ratio Q86SX6_C67 [2]; 231 | isoTOP-ABPP ratio Q86SX6_C67 ([2]; ramos) | isoTOP-ABPP ratio P42224_C492 [3]; 231 | isoTOP-ABPP ratio P30101_C57 ([4]; ramos) | isoTOP-ABPP ratio P30101_C406 ([4]; ramos) | isoTOP-ABPP ratio O95571_C170 [5]; 231 | isoTOP-ABPP ratio O95571_C170 ([5]; ramos) | isoTOP-ABPP ratio P04183_C230 [6]; 231 | isoTOP-ABPP ratio, cysteine P04183_C66 [6]; 231 | isoTOP-ABPP ratio Q99757_C90 [7] | isoTOP-ABPP ratio Q9HAV7_C124 [8] | isoTOP-ABPP ratio P30101_C57 [4]; 231 | isoTOP-ABPP ratio P30101_C406 [4]; 231 | isoTOP-ABPP ratio P42224_C492 ([3]; ramos) | isoTOP-ABPP ratio P04183_C66 [6]; 231 | isoTOP-ABPP ratio P04183_C230 ([6]; ramos) | SMILES
1.5 | – | 1.4 | – | 0.7 | – | – | 1.7 | – | 0.7 | – | 4.3 | 1.7 | 1.0 | – | – | – | – | O=C(CCl)NC12CC3CC(CC(C3)C1)C2 [compound 21]
– | – | – | – | 0.8 | – | – | – | – | – | – | – | – | 1.6 | – | – | – | – | COc1ccccc1OCCNC(=O)CCl [compound 28]
1.3 | – | 1.0 | – | 2.4 | – | – | – | – | 0.7 | – | 5.0 | – | – | 6.0 | – | – | – | O=C(CCl)Nc1cccc2ncccc12 [compound 51]
